ChEMBL document CHEMBL1133112, “Structure-function relationships in aminoquinolines: effect of amino and chloro groups on quinoline-hematin complex formation, inhibition of beta-hematin formation, and antiplasmodial activity” (J Med Chem, 2000)
pIC50: −log10 of the molar value. Active and inactive are the calls of the source. The calls are words filed in the database; no cut-off is given here.

Tests used:
Plasmodium falciparum = assay: In vitro antiplasmodial activity against Plasmodium falciparum D10; format: functional, organism-based
Ferriprotoporphyrin IX [1] = system: Ferriprotoporphyrin IX
Description: Association constant with ferriprotoporphyrin IX.

[2] = target: T1, Histidine-rich protein PFHRP-II (Plasmodium falciparum) (UniProt P05227)
T1 sequence (whole entry): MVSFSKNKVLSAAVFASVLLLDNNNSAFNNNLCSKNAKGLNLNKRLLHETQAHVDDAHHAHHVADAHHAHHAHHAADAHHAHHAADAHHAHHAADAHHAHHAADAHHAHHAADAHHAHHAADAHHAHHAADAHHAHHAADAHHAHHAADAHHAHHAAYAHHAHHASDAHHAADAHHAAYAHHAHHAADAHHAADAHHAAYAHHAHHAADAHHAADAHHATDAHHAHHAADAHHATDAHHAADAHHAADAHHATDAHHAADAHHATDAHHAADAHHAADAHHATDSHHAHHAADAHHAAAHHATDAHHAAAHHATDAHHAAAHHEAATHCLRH

Ferriprotoporphyrin IX [3] = assay: LogK (Association constant) with ferriprotoporphyrin IX.

SMILES: CC(=O)NCCNc1ccnc2ccccc12
- pIC50 (Plasmodium falciparum): < 5.00
- Log K (Ferriprotoporphyrin IX [1]): 4.28
- NI [2]: No inhibition

SMILES: OCCNc1ccnc2ccccc12
- pIC50 (Plasmodium falciparum): < 5.00
- Log K (Ferriprotoporphyrin IX [1]): 4.18
- NI [2]: No inhibition

SMILES: Nc1ccnc2cc(Cl)ccc12
- pIC50 (Plasmodium falciparum): 5.42
- Log K (Ferriprotoporphyrin IX [1]): 4.43

SMILES: Nc1cnc2ccccc2c1
- pIC50 (Plasmodium falciparum): < 5.00
- Log K (Ferriprotoporphyrin IX [1]): < 2.5
- NI [2]: inactive

SMILES: CN(C)CCNc1ccnc2cc(Cl)ccc12
- pIC50 (Plasmodium falciparum): 7.09
- Log K (Ferriprotoporphyrin IX [1]): 4.96

SMILES: Nc1cccc2cccnc12 [8-AMINOQUINOLINE]
- pIC50 (Plasmodium falciparum): < 5.00
- Log K (Ferriprotoporphyrin IX [1]): < 2.5
- NI [2]: No inhibition

SMILES: NCCNc1ccnc2cc(Cl)ccc12
- pIC50 (Plasmodium falciparum): 7.04
- Log K (Ferriprotoporphyrin IX [1]): 4.93

SMILES: CNc1ccnc2ccccc12
- pIC50 (Plasmodium falciparum): < 5.00
- Log K (Ferriprotoporphyrin IX [1]): 4.38
- NI [2]: No inhibition

SMILES: NCCNc1ccc2ccccc2n1
- pIC50 (Plasmodium falciparum): < 5.00
- Log K (Ferriprotoporphyrin IX [1]): 4.34
- NI [2]: No inhibition

SMILES: CNc1ccnc2cc(Cl)ccc12
- pIC50 (Plasmodium falciparum): 5.40
- Log K (Ferriprotoporphyrin IX [1]): 4.48

SMILES: Clc1ccc2c(Cl)ccnc2c1
- pIC50 (Plasmodium falciparum): < 5.00
- Log K (Ferriprotoporphyrin IX [1]): < 2.5
- NI [2]: No inhibition

SMILES: CNc1ccc2ccccc2n1
- pIC50 (Plasmodium falciparum): < 5.00
- Log K (Ferriprotoporphyrin IX [1]): 4.26
- NI [2]: inactive

SMILES: Nc1ccc2ncccc2c1
- pIC50 (Plasmodium falciparum): < 5.00
- Log K (Ferriprotoporphyrin IX [1]): < 2.5
- NI [2]: No inhibition

SMILES: NCCNc1ccnc2ccccc12
- pIC50 (Plasmodium falciparum): 5.33
- Log K (Ferriprotoporphyrin IX [1]): 4.59
- NI [2]: No inhibition

SMILES: CCN(CC)CCNc1ccnc2ccccc12
- pIC50 (Plasmodium falciparum): 6.10
- Log K2 (Ferriprotoporphyrin IX [3]): 3.2
- Log K (Ferriprotoporphyrin IX [1]): 4.75
- NI [2]: No inhibition

SMILES: Nc1cccc2ncccc12
- pIC50 (Plasmodium falciparum): < 5.00
- Log K (Ferriprotoporphyrin IX [1]): < 2.5
- NI [2]: No inhibition

SMILES: Nc1ccnc2ccccc12 [QUINOLIN-4-AMINE]
- pIC50 (Plasmodium falciparum): < 5.00
- Log K (Ferriprotoporphyrin IX [1]): 4.49
- NI [2]: No inhibition

SMILES: OCCNc1ccnc2cc(Cl)ccc12
- pIC50 (Plasmodium falciparum): 5.29
- Log K (Ferriprotoporphyrin IX [1]): 4.66

SMILES: CCN(CC)CCNc1ccnc2cc(Cl)ccc12
- pIC50 (Plasmodium falciparum): 7.31
- Log K2 (Ferriprotoporphyrin IX [3]): 4.47
- Log K (Ferriprotoporphyrin IX [1]): 5.81

SMILES: c1ccc2ncccc2c1 [QUINOLINE]
- pIC50 (Plasmodium falciparum): < 5.00
- Log K (Ferriprotoporphyrin IX [1]): < 2.5
- NI [2]: inactive
